Activity calls are given as the source filed them.
Columns and labels:
[1] = biological target: T1, High affinity choline transporter 1 (Homo sapiens, UniProt Q9GZV3); assay: human choline transporter potentiators, potency – cell-based, 10-point CRC, membrane potential dye, dose response (AID 602376); type: functional
T1 sequence (Q9GZV3 whole entry): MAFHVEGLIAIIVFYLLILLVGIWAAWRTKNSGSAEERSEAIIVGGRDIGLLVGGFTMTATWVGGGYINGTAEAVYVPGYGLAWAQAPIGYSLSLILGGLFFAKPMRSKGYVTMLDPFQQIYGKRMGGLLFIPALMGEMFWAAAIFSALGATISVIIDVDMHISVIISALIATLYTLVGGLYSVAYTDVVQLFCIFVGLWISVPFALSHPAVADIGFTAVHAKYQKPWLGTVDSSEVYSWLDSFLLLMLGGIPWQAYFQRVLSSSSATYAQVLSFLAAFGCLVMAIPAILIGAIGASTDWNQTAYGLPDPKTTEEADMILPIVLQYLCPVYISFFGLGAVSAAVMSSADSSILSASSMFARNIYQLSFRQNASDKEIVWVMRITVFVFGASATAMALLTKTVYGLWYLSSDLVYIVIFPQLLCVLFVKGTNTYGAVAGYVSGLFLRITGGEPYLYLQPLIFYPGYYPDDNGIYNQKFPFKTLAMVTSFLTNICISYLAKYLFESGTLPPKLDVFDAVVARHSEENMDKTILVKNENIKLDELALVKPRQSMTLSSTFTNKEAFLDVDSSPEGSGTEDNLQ

[2] = HEK-293T cell viability reduction – luminescence, B-cell screen hits, cytotoxicity control for BCR NF-kB inhibitor project, dose response (AID 489021); type: functional, cell-based;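 further: HEK-293T cells carrying an NF-kB luciferase reporter; cells exposed to compound for about 14 hours before viability readout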
[3] = Luminescence Cell-Based Dose Confirmation HTS to Identify Inhibitors of Platelet Dense Granule Release. [Related pubchem assays: 1663 (Primary HTS), 1678 (Summary of Project)]; type: functional
[4] = biological target: Luciferin 4-monooxygenase (Photinus pyralis, UniProt P08659); assay: inhibition of purified Photinus pyralis luciferase – biochemical, luminescence, dose response (AID 1891)
Luciferin 4-monooxygenase, sequence (P08659 whole entry): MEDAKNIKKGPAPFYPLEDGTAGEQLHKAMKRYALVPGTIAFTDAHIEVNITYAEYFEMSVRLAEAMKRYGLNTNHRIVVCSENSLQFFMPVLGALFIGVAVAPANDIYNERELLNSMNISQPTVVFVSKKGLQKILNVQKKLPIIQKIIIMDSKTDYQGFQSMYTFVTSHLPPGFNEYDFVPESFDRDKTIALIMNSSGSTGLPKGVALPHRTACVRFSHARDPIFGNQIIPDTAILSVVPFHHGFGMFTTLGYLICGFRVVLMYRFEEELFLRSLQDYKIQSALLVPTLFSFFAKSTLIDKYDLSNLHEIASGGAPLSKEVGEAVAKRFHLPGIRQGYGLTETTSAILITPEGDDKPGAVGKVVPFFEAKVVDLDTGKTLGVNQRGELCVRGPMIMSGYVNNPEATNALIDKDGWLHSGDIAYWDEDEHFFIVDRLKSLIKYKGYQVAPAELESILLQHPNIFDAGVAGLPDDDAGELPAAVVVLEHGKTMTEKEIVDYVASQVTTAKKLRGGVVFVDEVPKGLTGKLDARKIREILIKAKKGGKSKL

[5] = biological target: T2, Sentrin-specific protease 8 (Homo sapiens, UniProt Q96LD8); assay: inhibition of human SENP8 cleavage activity – biochemical, luminescence, SAR follow-up (AID 504501); type: functional
T2 sequence (Q96LD8 whole entry): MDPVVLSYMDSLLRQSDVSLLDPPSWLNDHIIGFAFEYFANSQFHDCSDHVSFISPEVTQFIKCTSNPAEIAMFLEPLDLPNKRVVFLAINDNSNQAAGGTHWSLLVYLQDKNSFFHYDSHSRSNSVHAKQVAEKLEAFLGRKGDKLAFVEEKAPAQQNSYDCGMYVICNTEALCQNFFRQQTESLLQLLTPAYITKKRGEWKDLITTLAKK

[6] = biological target: T3, Caspase-3 (Homo sapiens, UniProt P42574); assay: SAR Analysis of small molecule inhibitors of Sentrin-specific proteases (SENPs) using a Caspase-3 Selectivity assay. [Related pubchem assays (depositor defined):AID2540, AID2599, AID434973, AID489001]; type: functional
T3 sequence (P42574 whole entry): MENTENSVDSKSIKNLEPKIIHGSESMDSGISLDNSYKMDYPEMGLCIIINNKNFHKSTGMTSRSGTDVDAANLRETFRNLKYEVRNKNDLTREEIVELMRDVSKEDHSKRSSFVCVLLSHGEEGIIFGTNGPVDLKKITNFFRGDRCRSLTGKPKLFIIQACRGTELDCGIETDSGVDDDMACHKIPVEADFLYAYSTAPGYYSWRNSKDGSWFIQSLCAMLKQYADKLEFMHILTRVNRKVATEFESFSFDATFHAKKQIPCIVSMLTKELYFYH

[7] = biological target: T4, Sentrin-specific protease 7 (Homo sapiens, UniProt Q9BQF6); assay: inhibition of human SENP7 cleavage activity – biochemical, luminescence, SAR follow-up (AID 504497); type: functional
T4 sequence (Q9BQF6 whole entry): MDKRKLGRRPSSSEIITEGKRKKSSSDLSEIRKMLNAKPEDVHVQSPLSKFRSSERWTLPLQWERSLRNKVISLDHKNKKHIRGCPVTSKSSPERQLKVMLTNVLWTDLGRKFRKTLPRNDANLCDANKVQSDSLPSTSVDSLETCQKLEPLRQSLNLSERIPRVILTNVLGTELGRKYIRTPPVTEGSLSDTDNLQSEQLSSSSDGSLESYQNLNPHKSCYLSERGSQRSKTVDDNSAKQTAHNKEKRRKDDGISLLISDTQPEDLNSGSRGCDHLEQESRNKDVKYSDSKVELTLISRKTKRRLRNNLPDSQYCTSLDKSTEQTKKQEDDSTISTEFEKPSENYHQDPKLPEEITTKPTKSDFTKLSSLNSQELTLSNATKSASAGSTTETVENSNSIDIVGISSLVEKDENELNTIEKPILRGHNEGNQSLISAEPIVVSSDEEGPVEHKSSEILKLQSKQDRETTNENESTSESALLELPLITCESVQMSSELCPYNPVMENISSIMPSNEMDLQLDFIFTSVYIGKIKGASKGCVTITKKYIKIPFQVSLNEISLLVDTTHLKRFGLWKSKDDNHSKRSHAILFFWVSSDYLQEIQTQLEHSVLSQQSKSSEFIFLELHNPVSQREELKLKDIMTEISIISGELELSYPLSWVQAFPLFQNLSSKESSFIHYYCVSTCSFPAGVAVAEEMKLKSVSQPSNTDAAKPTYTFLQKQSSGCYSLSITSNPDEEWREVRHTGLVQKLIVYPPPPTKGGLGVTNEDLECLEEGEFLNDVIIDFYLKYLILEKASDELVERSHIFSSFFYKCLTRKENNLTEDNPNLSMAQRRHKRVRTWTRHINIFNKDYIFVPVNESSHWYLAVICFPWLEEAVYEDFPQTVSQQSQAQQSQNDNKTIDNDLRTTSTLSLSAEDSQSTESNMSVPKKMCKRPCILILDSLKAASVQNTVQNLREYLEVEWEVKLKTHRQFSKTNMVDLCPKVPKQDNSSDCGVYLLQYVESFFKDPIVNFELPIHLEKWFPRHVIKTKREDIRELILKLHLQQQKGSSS

[8] = biological target: T5, Sentrin-specific protease 6 (Homo sapiens, UniProt Q9GZR1); assay: SAR Analysis of small molecule inhibitors of Sentrin-specific protease 6 (SENP6) using a Luminescent assay. [Related pubchem assays (depositor defined):AID2582, AID2599]; type: functional
T5 sequence (Q9GZR1 whole entry): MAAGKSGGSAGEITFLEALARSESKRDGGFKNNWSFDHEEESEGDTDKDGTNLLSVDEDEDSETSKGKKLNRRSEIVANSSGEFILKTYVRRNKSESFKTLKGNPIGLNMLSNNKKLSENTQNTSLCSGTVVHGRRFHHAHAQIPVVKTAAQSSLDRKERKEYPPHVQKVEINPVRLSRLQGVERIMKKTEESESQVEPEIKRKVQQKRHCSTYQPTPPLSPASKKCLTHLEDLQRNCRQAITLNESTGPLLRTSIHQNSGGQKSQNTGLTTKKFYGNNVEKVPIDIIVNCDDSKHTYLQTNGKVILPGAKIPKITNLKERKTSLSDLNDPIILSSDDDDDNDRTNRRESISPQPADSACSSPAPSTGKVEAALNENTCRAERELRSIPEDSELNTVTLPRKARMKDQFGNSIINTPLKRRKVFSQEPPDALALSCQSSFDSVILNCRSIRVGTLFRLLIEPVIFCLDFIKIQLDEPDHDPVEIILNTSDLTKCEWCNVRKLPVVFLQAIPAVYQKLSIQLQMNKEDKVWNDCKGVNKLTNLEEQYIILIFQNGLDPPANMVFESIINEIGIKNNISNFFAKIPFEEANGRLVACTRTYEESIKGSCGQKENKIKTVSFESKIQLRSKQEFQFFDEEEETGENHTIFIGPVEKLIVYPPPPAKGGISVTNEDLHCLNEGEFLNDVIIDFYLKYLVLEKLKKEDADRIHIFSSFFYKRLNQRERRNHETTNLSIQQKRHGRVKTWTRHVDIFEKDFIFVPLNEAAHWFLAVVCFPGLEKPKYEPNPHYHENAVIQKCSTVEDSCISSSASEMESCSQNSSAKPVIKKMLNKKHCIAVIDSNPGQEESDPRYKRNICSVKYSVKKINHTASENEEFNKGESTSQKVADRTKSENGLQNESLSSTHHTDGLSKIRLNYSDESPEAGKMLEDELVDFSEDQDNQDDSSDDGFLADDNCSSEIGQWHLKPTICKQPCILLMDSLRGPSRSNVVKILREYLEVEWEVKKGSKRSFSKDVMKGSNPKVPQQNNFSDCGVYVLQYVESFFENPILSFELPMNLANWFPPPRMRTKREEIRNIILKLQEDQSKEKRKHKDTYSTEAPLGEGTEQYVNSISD

[9] = biological target: Cyclin-dependent kinase 8 (Homo sapiens, UniProt P49336); assay: Navigating the Kinome. Panel member name: CDK8; type: functional
Cyclin-dependent kinase 8, sequence (P49336 whole entry): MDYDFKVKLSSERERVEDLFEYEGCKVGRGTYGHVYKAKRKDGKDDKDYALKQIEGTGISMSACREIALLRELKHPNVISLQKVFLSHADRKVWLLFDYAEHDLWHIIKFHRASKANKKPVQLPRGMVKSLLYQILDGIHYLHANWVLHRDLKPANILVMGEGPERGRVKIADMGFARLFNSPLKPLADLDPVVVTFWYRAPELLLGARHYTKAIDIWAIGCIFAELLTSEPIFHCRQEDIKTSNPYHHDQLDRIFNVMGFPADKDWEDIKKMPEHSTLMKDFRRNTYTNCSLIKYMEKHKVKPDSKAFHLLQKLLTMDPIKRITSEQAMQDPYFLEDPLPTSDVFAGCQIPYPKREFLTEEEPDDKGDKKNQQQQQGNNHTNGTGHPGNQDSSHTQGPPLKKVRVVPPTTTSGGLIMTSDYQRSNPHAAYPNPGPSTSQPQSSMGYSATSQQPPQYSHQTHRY

[10] = biological target: T6, Serine/threonine-protein kinase Nek2 (Homo sapiens, UniProt P51955); type: functional
T6 sequence (P51955 whole entry): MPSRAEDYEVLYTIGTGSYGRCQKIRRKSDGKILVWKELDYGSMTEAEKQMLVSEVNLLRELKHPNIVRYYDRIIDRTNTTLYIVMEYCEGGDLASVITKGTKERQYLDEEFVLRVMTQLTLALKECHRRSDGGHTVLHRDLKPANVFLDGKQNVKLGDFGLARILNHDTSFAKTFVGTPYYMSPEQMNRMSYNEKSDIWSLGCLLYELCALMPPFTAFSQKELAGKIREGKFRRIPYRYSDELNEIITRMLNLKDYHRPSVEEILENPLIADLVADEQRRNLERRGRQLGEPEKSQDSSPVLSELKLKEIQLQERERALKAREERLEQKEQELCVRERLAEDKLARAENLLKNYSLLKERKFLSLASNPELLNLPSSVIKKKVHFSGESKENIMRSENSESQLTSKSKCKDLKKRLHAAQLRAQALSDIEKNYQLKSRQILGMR

[11] = biological target: Serine/threonine-protein kinase Chk1 (Homo sapiens, UniProt O14757); type: functional;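 further: measured as one member of a kinome-wide kinase profiling panel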
Serine/threonine-protein kinase Chk1, sequence (O14757 whole entry, the tested form may be a part): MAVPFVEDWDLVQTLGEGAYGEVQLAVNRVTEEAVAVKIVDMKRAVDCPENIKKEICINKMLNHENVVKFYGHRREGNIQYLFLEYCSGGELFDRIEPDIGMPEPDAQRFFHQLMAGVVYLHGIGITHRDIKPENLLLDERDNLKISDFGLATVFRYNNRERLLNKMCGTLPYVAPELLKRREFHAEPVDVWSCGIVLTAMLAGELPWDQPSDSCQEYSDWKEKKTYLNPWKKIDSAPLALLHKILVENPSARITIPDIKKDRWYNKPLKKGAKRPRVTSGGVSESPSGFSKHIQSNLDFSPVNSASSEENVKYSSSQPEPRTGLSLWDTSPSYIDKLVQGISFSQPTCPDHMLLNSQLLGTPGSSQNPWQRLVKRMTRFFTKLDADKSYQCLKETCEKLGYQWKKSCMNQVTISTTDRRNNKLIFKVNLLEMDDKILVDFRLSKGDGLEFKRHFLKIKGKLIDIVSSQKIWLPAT

[12] = biological target: LIM domain kinase 1 (Homo sapiens, UniProt P53667); assay: Navigating the Kinome. Panel member name: LIMK1; type: functional
LIM domain kinase 1, sequence (P53667 whole entry, the tested form may be a part): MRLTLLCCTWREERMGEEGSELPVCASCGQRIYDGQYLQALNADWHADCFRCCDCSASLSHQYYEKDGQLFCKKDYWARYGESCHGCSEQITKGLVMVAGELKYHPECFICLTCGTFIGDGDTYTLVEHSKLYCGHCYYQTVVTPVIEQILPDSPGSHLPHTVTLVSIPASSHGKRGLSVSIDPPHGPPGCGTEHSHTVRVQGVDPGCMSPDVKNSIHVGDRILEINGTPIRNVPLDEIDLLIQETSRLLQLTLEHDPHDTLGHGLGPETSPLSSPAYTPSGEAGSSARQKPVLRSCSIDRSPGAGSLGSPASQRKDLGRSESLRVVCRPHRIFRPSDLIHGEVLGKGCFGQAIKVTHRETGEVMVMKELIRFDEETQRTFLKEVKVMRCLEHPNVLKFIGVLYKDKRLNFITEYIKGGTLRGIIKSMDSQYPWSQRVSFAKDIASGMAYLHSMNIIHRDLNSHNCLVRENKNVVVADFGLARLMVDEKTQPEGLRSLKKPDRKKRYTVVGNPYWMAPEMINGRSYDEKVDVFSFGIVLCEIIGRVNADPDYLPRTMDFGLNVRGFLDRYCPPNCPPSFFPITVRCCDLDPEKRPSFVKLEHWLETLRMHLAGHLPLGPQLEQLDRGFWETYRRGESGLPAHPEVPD

[13] = biological target: Melanin-concentrating hormone receptor 1 (Homo sapiens, UniProt Q99705); assay: Late-stage fluorescence-based counterscreen for antagonists of the G-protein coupled receptor 7 (GPR7): cell-based dose response assay to identify antagonists of the melanin-concentrating hormone receptor 1 (MCHR1) Set 5.; type: functional
Melanin-concentrating hormone receptor 1, sequence (Q99705 whole entry): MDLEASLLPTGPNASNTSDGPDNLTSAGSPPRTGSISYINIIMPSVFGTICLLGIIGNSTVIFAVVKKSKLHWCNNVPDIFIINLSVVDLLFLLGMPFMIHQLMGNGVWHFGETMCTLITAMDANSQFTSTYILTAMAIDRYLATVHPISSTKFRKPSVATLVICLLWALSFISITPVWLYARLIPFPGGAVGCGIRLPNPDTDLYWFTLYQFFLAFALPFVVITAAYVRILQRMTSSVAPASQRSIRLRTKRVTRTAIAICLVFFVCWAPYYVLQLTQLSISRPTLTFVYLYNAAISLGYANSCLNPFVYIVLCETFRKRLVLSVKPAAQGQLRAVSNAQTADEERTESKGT

| Compound | EC50 [1] | IC50 [5] | IC50 [6] | IC50 [7] | IC50 [8] | other results |
| --- | --- | --- | --- | --- | --- | --- |
| COc1cc(C2C(C#N)=C(N)Oc3cc(N)ccc32)cc(OC)c1OC (stereo not drawn) | 13.5 µM (active) |  |  |  |  | IC50 [2]: > 80 µM (inactive) |
| CC(Oc1ccccc1)C(=O)N(CCC1=CCCCC1)c1c(N)n(Cc2ccccc2)c(=O)[nH]c1=O (stereo not drawn) | 15 µM (active) |  |  |  |  | EC50 [3]: > 112 µM (not active); EC50 [4]: > 112 µM (not active) |
| Cc1c(C(=O)Nc2nc3ccccc3s2)oc2ccccc12 |  | > 99 µM (inactive) | > 99 µM (inactive) | > 99 µM (inactive) | > 99 µM (inactive) |  |
| CCN(CC)S(=O)(=O)c1ccc(C(=O)Nc2nc3c(C)ccc(Cl)c3s2)cc1 |  | > 99 µM (inactive) | > 99 µM (inactive) | > 99 µM (inactive) | > 99 µM (inactive) |  |
| O=S(=O)(Nc1ccc2ccccc2c1O)c1ccc(F)cc1 |  |  |  |  |  | Ki [9]: 2.51 µM (active); Ki [10]: 3.16 µM (active); Ki [11]: 3.16 µM (active); Ki [12]: 2.51 µM (active) |
| CCOc1cccc(Oc2c(Cl)cnn(Cc3cccc4ccccc34)c2=O)c1 |  |  |  |  |  | IC50 [13]: 18.8 µM (inactive) |
